Measured values as given in US20240009148A1, “Cystamine Formulations and Uses Thereof” (Birch Therapeutics, Inc., priority 2020, published 2024).
Counter-ions that a name gives are not always drawn. Like-named read-outs stand apart in the source and are kept apart here.

Columns and labels:
[1] = design: species or system male Sprague Dawley rats; details: rat, in vivo
Protocol: Cystamine dihydrochloride and cysteamine hydrochloride were administered to rats 1) orally on an empty stomach; 2) orally on full stomach; and 3) intra-cecum to evaluate the pharmacokinetics of cystamine and to compare it to cysteamine pharmacokinetics. Oral administration (PO) simulated immediate-release (IR) formulations. Intra-cecum (IC) administration simulated large intestine release (LIR) formulations, which provides a time to Cmax of more than 4 hours after administration.
Animal studies were performed by Absorption Systems. Test articles: Cysteamine hydrochloride (CH), 98%; Cystamine dihydrochloride (HCCH), 95-96% (both obtained from Sigma Aldrich). CH has one cysteamine base, while HCCH, upon disulfide bond reduction, yields two cysteamine molecules. CH and HCCH were administered at a dose selected to deliver 30 mg/kg of cysteamine base (44.2 mg/kg and 43.8 mg/kg respectively), so that each rat received same number of cysteamine molecules. Test articles (dry powder) were dissolved in 3 mL for PO and in 0.5 mL for IC of room temperature water no more than 15 minutes before dosing.
Five (5) male Sprague Dawley rats ˜300-350 gram (Envigo) were used per group, with 6 groups total.
All animals were healthy at the start of the trial and assigned randomly to the study groups by weight. Fed state animals had food and water supplied ad libitum. Fasted state animals had food removed at least 12 hours prior to dosing and food was returned 4 hours post dosing; water was supplied ad libitum. Oral gavage needle and syringe were used for oral administration. For IC dose administration, the animals were anesthetized with isoflurane regulated at ˜1-3% in oxygen. The abdominal cavity was surgically opened and the proximal large intestine was exposed. A test article was administered directly into the proximal large intestine with a 1 cc disposable syringe equipped with a 25 g hypodermic needle. The surgical site was then closed with staples or suture.
Blood was sampled from jugular vein at the following time points: pre-dose, 15, 30, 60, 120, 180, and 240 minutes post dose. Blood samples were collected into tubes containing TBD anticoagulant, then centrifuged at a temperature of 4° C., at 3,000×g, for 5 minutes. Once prepared, plasma samples were snap frozen. Plasma samples were stored at −80° C. until analysis.
Sample analysis was performed by Integrated Analytical Solutions. To measure plasma cysteamine, to 10 uL of a plasma sample or standard was added 10 uL of internal standard with reduction solution: 5 ug/mL d4-cysteamine (CDN Isotopes), 10 mM TCEP in water, prepared fresh, and mixed thoroughly. The mixture was incubated at 37° C. for 60 minutes, then 40 uL of 5% trichloroacetic acid was added and the solution was mixed thoroughly. Samples were then centrifuged at 6100 g for 30 minutes. Next, 20 uL of each supernatant were transferred to an autosampler plate and sealed with a cap mat. The concentration of cysteamine was measured by use of LC/MS/MS tandem mass spectroscopy. Column Atlantis T3 2.1×30mm, 3um was used at a room temperature; mobile phase A: 0.1% heptafluorobutyric acid in water; mobile phase B: 0.2% formic acid in acetonitrile; injection volume: 3 uL. (API 4000 LC/MS/MS; Applied Biosystems). The following MS parameters were used—HPLC system: Shimadzu VP Series 10 System; MS/MS: Applied Biosystems/MDS SCIEX API 4000; software: Analyst v1.6.3; isolation method: Electrospray, Positive Ion; source temperature: TurbolonSpray (ESI) at 400°. Cysteamine concentrations were calculated with a calibration curve that was prepared by spiking plasma with buffered cysteamine solutions, and quality control samples were analyzed with each batch.

[2] = tested on: cystinosis fibroblast cell culture; details: compared with cysteamine (Thoene 1976); cited from earlier work

## NCCS [CH, Cysteamine hydrochloride, reference compound]
[1]
  Cmax of plasma cysteamine, IC compared to PO fasted: higher
  Tmax (time to Cmax) of plasma cysteamine: 15 min
[1]; po
  Tmax (time to Cmax) of plasma cysteamine: 15 min

## NCCSSCCN [Cystamine]
[2]
  Decrease of lysosomal cystine: comparably to cysteamine

## Cl.Cl.NCCSSCCN [HCCH, Cystamine dihydrochloride]
[1]; male, Sprague Dawley, po
  AUC for dosing into the large intestine lower than AUC for oral dosing: 25%
  Cmax for IC dosing lower than Cmax after oral administration: more than 50%
[1]
  Absorption pattern after dosing to the large intestine: not rapid, but rather sustained
[1]; po
  Cmax of plasma cysteamine compared to CH: higher Cmax
